From doi:10.1101/2024.09.04.611205v1 (biorxiv, 2024)

Tests used:
cyclooxygenase 2 (COX-2) = target: T1, cyclooxygenase 2 (COX-2) (Homo sapiens, UniProt P35354); test: fluorimetric ADHP/resorufin assay; type: biochemical; details: read-out: % inhibition at 20 μM
T1 sequence (P35354 18-604): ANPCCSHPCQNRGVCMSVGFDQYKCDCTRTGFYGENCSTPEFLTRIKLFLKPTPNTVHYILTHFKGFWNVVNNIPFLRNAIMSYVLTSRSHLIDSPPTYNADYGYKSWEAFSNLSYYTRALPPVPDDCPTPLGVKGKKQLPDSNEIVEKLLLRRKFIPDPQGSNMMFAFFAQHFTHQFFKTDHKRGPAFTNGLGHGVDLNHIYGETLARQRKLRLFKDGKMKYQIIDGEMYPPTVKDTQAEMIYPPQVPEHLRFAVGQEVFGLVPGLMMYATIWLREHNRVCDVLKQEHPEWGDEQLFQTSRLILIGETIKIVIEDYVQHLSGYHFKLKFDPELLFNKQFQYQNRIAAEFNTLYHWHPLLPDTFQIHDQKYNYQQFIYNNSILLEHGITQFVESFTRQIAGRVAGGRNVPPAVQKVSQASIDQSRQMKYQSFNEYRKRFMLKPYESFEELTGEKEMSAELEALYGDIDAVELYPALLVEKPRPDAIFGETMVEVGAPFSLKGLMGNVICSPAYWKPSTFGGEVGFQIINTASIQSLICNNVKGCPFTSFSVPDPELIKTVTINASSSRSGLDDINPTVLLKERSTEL

cyclooxygenase 1 (COX-1) = cyclooxygenase 1 (COX-1) (Homo sapiens, UniProt P23219); test: fluorimetric ADHP/resorufin assay; type: biochemical; details: read-out: % inhibition at 20 μM
cyclooxygenase 1 (COX-1), sequence (P23219 24-599): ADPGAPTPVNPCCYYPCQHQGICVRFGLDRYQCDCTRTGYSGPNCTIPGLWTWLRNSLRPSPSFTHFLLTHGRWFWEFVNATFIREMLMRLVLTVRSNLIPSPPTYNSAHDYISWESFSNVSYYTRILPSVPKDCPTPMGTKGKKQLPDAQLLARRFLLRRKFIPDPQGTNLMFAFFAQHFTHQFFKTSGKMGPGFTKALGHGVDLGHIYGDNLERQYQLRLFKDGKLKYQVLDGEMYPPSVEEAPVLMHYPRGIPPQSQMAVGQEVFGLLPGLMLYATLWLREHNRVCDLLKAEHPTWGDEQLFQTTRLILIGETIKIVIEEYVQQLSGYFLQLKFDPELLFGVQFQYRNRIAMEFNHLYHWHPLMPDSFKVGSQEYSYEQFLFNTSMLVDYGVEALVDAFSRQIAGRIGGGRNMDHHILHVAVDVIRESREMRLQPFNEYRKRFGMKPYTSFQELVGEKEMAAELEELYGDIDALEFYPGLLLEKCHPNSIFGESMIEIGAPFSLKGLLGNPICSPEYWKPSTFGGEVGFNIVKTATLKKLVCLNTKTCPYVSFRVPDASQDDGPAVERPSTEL

`Cc1cccc(-c2n[nH]cc2-c2ccc3ncccc3n2)n1` [RepSox] was tested, and the inhibition at 20 µM (cyclooxygenase 2 (COX-2)) was 13% and the inhibition at 20 µM (cyclooxygenase 1 (COX-1)) was 61%.
